Legend:
Assay in all cases: SILAC RP-ABPP
Format in all cases: cell-based
[1] = target: T1, APLP2 Amyloidlike protein 2 (Q06481) (Homo sapiens, UniProt Q06481); conditions: SILAC H/L
T1 construct: shared by both the endogenous and recombinant forms of these proteins; endogenous in cells; host or cells: HEK293T and MDA-MB-231

[2] = target: T2, CTSZ Cathepsin Z (Q9UBR2) (Homo sapiens, UniProt Q9UBR2); conditions: SILAC H/L, MDA-MB-231
T2 construct: In Situ Labelling of Cells with Hydrazine Probes for MS Experiments; endogenous in cells; host or cells: HEK293T and MDA-MB-231
T2 sequence (Q9UBR2 62-303): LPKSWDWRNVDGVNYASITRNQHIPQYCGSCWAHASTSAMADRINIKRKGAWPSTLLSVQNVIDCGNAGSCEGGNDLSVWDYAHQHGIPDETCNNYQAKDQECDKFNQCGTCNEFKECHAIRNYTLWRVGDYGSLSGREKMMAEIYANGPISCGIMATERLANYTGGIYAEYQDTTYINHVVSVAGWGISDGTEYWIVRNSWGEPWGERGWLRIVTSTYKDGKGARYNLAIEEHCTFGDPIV

[3] = target: T3, RARS2 Probable arginine tRNA ligase (Q5T160) (Homo sapiens, UniProt Q5T160); conditions: SILAC H/L
T3 construct: shared by both the endogenous and recombinant forms of these proteins; endogenous in cells; host or cells: HEK293T and MDA-MB-231
T3 sequence (Q5T160 17-578): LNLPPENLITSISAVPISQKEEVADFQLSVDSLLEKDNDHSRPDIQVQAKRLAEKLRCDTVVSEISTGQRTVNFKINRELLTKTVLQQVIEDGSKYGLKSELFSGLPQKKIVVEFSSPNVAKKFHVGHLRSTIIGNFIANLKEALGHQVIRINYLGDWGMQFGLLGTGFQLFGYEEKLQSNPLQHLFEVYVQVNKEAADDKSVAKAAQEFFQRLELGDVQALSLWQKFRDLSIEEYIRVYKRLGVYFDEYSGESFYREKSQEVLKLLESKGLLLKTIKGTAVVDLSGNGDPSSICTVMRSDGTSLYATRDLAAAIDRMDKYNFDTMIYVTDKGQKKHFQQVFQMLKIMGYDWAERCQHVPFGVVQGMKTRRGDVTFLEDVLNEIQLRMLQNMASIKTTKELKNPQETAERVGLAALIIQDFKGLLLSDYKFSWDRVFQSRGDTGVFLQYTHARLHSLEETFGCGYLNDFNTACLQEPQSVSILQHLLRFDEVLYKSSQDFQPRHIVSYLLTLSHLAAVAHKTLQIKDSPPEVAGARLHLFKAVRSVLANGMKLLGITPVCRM

[4] = target: T4, ALDOA Fructosebisphosphate aldolase A (P04075) (Homo sapiens, UniProt P04075); conditions: SILAC H/L, HEK293T
T4 construct: shared by both the endogenous and recombinant forms of these proteins; endogenous in cells; host or cells: HEK293T and MDA-MB-231
T4 sequence (P04075 1-364): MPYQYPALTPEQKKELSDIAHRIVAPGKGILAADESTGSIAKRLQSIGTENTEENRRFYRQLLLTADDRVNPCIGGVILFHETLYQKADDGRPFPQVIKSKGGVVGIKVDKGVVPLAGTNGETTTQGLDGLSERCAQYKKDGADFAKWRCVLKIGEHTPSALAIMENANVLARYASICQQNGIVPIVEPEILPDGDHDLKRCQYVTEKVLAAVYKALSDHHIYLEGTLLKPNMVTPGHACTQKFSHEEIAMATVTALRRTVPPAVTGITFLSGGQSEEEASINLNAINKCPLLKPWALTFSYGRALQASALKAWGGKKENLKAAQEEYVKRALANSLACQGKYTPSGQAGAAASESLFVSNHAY

[5] = target: T5, CTSB Cathepsin B (P07858) (Homo sapiens, UniProt P07858); conditions: SILAC H/L, MDA-MB-231
T5 construct: In Situ Labelling of Cells with Hydrazine Probes for MS Experiments; endogenous in cells; host or cells: HEK293T and MDA-MB-231

T1 sequence (Q06481 32-763): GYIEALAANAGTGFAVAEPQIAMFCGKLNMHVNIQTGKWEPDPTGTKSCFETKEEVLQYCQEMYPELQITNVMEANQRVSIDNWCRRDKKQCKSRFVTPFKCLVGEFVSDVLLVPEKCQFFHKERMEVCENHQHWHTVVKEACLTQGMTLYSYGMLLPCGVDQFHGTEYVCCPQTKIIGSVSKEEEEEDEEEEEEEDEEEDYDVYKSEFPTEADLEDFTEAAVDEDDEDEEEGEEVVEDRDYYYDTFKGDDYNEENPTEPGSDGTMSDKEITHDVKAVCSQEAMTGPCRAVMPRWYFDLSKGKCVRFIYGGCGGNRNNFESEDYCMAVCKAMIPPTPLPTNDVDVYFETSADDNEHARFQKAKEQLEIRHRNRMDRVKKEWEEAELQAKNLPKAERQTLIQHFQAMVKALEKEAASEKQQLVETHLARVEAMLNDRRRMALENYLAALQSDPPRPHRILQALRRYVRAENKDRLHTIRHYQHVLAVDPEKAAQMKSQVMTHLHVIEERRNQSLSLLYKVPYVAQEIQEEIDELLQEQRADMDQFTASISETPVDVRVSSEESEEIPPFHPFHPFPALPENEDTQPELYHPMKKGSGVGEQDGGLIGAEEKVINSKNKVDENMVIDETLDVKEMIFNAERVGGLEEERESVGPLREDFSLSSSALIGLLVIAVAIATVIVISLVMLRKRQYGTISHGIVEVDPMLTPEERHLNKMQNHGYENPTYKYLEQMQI

SMILES | enrichment ratioavg ([1]; probe 1 3 mM 0.5 h vs probe 3, MDA-MB-231) | competition ratioavg ([1]; probe 1 vs probe 1+10x probe 3, MDA-MB-231) | enrichment ratioavg ([2]; probe 1 3 mM 0.5 h vs probe 3) | competition ratioavg ([2]; probe 1 vs probe 1+10x probe 3) | enrichment ratioavg ([3]; probe 1 3 mM 0.5 h vs probe 3, HEK293T) | competition ratioavg ([3]; probe 1 vs probe 1+10x probe 3, HEK293T) | enrichment ratioavg ([4]; probe 1 3 mM 0.5 h vs probe 3) | competition ratioavg ([4]; probe 1 vs probe 1+10x probe 3) | enrichment ratioavg ([5]; probe 1 3 mM 0.5 h vs probe 3) | competition ratioavg ([5]; probe 1 vs probe 1+10x probe 3) | enrichment ratioavg ([1]; probe 2 1 mM 0.5 h vs probe 4, single experiment, cell line not given) | enrichment ratioavg ([2]; probe 2 1 mM 0.5 h vs probe 4) | competition ratioavg ([2]; probe 2 vs probe 2+10x probe 4) | competition ratioavg ([3]; probe 2 vs probe 2+10x probe 4, cell line not given) | enrichment ratioavg ([4]; probe 2 1 mM 0.5 h vs probe 4) | competition ratioavg ([4]; probe 2 vs probe 2+10x probe 4) | enrichment ratioavg ([5]; probe 2 1 mM 0.5 h vs probe 4) | competition ratioavg ([5]; probe 2 vs probe 2+10x probe 4)
C#CCNN.Cl [probe 1, prop-2-yn-1-ylhydrazine hydrochloride] | 19 | 7 | 13 | 3 | 16 | 4 | 16 | 3 | 9 | 3 | – | – | – | – | – | – | – | –
C#CCCNC(=O)c1ccc(NN)cc1.Cl [probe 2, N-(but-3-yn-1-yl)-4-hydrazinylbenzamide hydrochloride] | – | – | – | – | – | – | – | – | – | – | 20 | 19 | 5 | 3 | 12 | 5 | 14 | 5

— US11226337B2, “Chemoproteomic profiling of protein electrophilic and oxidative post-translational modifications” (Zenagem, LLC, priority 2017, dated 2022)
